One compound from article PMC9032380, “Functional exploration of the glycoside hydrolase family GH113” (PLoS ONE, 2022) can be followed below.

Each structure is given as a SMILES string.

Common to all, as to assay: HPAEC-PAD of hydrolysis products
Common to all, as to type: biochemical

One experiment addresses T1, EDP22100 (Faecalibacterium prausnitzii, UniProt A8S9T0).
T1 construct: gene FAEPRAM212_01134; predicted GH113 catalytic domain; no signal peptide predicted; N-terminal His6 tag (pHTP1), E. coli BL21(DE3); codon-optimised synthetic gene
T1 sequence (A8S9T0 1-309): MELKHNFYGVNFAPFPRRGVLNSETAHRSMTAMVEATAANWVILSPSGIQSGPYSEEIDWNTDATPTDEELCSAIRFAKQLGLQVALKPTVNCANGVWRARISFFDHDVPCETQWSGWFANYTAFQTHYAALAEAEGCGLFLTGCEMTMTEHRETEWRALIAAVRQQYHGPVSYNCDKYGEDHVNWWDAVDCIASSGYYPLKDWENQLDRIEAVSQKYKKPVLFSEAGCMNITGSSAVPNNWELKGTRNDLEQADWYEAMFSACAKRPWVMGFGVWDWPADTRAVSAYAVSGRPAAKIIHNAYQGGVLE
To be noted: 100 uM M6, 10 mM phosphate pH 7.5, 25 C; reaction time course.

The target in another experiment is T2, AIQ46016 (Paenibacillus sp. FSL R7-0273, UniProt A0A089KA84).
T2 construct: gene R70723_09070; predicted GH113 catalytic domain; no signal peptide predicted; N-terminal His6 tag (pHTP1), E. coli BL21(DE3); codon-optimised synthetic gene
T2 sequence (A0A089KA84 1-318): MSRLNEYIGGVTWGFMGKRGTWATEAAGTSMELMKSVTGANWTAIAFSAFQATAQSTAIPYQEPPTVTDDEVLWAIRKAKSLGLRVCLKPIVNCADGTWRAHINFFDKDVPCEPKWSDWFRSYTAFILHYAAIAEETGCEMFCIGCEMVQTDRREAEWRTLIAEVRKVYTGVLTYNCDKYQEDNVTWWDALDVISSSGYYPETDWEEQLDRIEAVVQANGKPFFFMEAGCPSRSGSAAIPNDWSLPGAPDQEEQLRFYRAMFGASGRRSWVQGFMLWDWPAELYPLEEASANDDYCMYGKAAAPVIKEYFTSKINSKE
To be noted: […] M6, […] phosphate pH […] C; overnight incubation.

Another experiment addresses T3, AGY82530 (Carnobacterium inhibens, UniProt A0ABR7TC15).
T3 construct: gene GLO26_06385; predicted GH113 catalytic domain; no signal peptide predicted; N-terminal His6 tag (pHTP1), E. coli BL21(DE3); codon-optimised synthetic gene
T3 sequence (A0ABR7TC15 1-309): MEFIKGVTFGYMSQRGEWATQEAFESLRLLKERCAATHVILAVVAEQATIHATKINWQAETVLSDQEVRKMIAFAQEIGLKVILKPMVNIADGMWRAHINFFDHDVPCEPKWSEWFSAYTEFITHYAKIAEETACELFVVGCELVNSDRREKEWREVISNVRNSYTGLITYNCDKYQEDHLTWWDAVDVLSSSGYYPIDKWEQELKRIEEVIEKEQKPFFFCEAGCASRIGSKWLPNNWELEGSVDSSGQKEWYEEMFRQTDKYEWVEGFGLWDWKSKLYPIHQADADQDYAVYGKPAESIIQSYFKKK
The settings on record: […] M6, […] phosphate pH […] C; overnight incubation.

Take `OC[C@H]1O[C@@H](O[C@H]2[C@H](O)[C@H](O)[C@H](O[C@H]3[C@H](O)[C@H](O)[C@H](O[C@H]4[C@H](O)[C@H](O)[C@H](O[C@H]5[C@H](O)[C@H](O)[C@H](O[C@H]6[C@H](O)[C@H](O)C(O)O[C@@H]6CO)O[C@@H]5CO)O[C@@H]4CO)O[C@@H]3CO)O[C@@H]2CO)[C@@H](O)[C@@H](O)[C@@H]1O` (stereo partly drawn) [M6, mannohexaose]: the “HPAEC-PAD of hydrolysis products” value at EDP22100 was “confirming the release of mannose from mannohexaose (M6)”; on AIQ46016 it was “end-products released by AGY82530, AGF59019, AIQ46016 and AIQ63165 after overnight incubation with M6”; at AGY82530 it was “end-products released by AGY82530, AGF59019, AIQ46016 and AIQ63165 after overnight incubation with M6”.
